Laboratory results as given in patent publication US4914104A, “Imidazo [1,5-a]pyrimidine derivatives and process for their preparation” (Kyorin Pharmaceutical Co., Ltd., priority 1984, dated 1990).
In brackets after ≈: the same amount, converted by molar mass.

Key:
Experiment in all cases: Antifungal activity, standard agar dilution streak method
Format in all cases: cell-based
Candida albicans 3147 = conditions: read-out: Minimum inhibitory concentration
Description: (§1) The antifungal activity of the compound of the present invention was assayed by the standard agar dilution streak method against fungi.

[1] = system: Candida albicans IFO-1388; conditions: IFO1388, read-out: Minimum inhibitory concentration
Description: as §1

[2] = system: Candida albicans IFO-1594; conditions: IFO1594, read-out: Minimum inhibitory concentration
Description: as §1

Candida albicans KYF-602 = conditions: KYF602, read-out: Minimum inhibitory concentration
Description: as §1

[3] = system: Candida albicans MTU-12124; conditions: MTU12124, read-out: Minimum inhibitory concentration
Description: as §1

[4] = system: Candida stellatidea IFO-1398; conditions: IFO1398, read-out: Minimum inhibitory concentration
Description: as §1

[5] = system: Trichophyton mentagrophytes MTU-19003; conditions: MTU19003, read-out: Minimum inhibitory concentration
Description: as §1

[6] = system: Trichophyton mentagrophytes MTU-19005; conditions: MTU19005, read-out: Minimum inhibitory concentration
Description: as §1

[7] = system: Aspergillus fumigatus MTU-06002; conditions: MTU06002, read-out: Minimum inhibitory concentration
Description: as §1

Microsporum canis 200100 = conditions: read-out: Minimum inhibitory concentration
Description: as §1

Row | SMILES | MIC (Candida albicans 3147) | MIC [1] | MIC [2] | MIC (Candida albicans KYF-602) | MIC [3] | MIC [4] | MIC [5] | MIC [6] | MIC [7] | MIC (Microsporum canis 200100)
1 | Clc1cc(Cl)n2c(-c3ccc(Br)cc3)nc(Cl)c2n1 [Exp. 17] | 1.56 µg/mL (≈ 4.13 µM) | 0.78 µg/mL (≈ 2.07 µM) | 1.56 µg/mL (≈ 4.13 µM) | 6.25 µg/mL (≈ 16.6 µM) | 3.13 µg/mL (≈ 8.29 µM) | 0.39 µg/mL (≈ 1.03 µM) | 3.13 µg/mL (≈ 8.29 µM) | 3.13 µg/mL (≈ 8.29 µM) |  | 
2 | Clc1cc(Cl)n2c(Cc3cccs3)ncc2n1 [Exp. 4] | 3.13 µg/mL (≈ 11 µM) | 6.25 µg/mL (≈ 22 µM) | 3.13 µg/mL (≈ 11 µM) | 6.25 µg/mL (≈ 22 µM) | 6.25 µg/mL (≈ 22 µM) | 3.13 µg/mL (≈ 11 µM) | 1.56 µg/mL (≈ 5.49 µM) | 1.56 µg/mL (≈ 5.49 µM) | 12.5 µg/mL (≈ 44 µM) | 1.56 µg/mL (≈ 5.49 µM)
3 | Clc1cc(Cl)n2c(-c3ccccc3)nc(Cl)c2n1 [Exp. 13, 2,4,8-trichloro-6-phenylimidazo[1,5-a]pyrimidine] | 3.13 µg/mL (≈ 10.5 µM) | 3.13 µg/mL (≈ 10.5 µM) | 3.13 µg/mL (≈ 10.5 µM) | 3.13 µg/mL (≈ 10.5 µM) | 12.5 µg/mL (≈ 41.9 µM) | 6.25 µg/mL (≈ 20.9 µM) | 0.78 µg/mL (≈ 2.61 µM) | 0.78 µg/mL (≈ 2.61 µM) | 6.25 µg/mL (≈ 20.9 µM) | 0.78 µg/mL (≈ 2.61 µM)
4 | Clc1cc(Cl)n2c(-c3ccco3)ncc2n1 [Exp. 3] | 3.13 µg/mL (≈ 12.3 µM) | 3.13 µg/mL (≈ 12.3 µM) | 3.13 µg/mL (≈ 12.3 µM) | 12.5 µg/mL (≈ 49.2 µM) | 6.25 µg/mL (≈ 24.6 µM) | 3.13 µg/mL (≈ 12.3 µM) | 3.13 µg/mL (≈ 12.3 µM) | 3.13 µg/mL (≈ 12.3 µM) | 12.5 µg/mL (≈ 49.2 µM) | 1.56 µg/mL (≈ 6.14 µM)
5 | Clc1cc(Cl)n2c(-c3ccsc3)ncc2n1 [Exp. 5] | 3.13 µg/mL (≈ 11.6 µM) | 6.25 µg/mL (≈ 23.1 µM) | 3.13 µg/mL (≈ 11.6 µM) | 12.5 µg/mL (≈ 46.3 µM) | 6.25 µg/mL (≈ 23.1 µM) | 6.25 µg/mL (≈ 23.1 µM) | 1.56 µg/mL (≈ 5.77 µM) | 0.78 µg/mL (≈ 2.89 µM) | 3.13 µg/mL (≈ 11.6 µM) | 1.56 µg/mL (≈ 5.77 µM)
6 | Cc1ccc(-c2ncc3nc(Cl)cc(Cl)n23)s1 [Exp. 8] | 1.56 µg/mL (≈ 5.49 µM) | 6.25 µg/mL (≈ 22 µM) | 6.25 µg/mL (≈ 22 µM) | 6.25 µg/mL (≈ 22 µM) | 3.13 µg/mL (≈ 11 µM) | 1.56 µg/mL (≈ 5.49 µM) | 1.56 µg/mL (≈ 5.49 µM) | 1.56 µg/mL (≈ 5.49 µM) |  | 
7 | Clc1ccc(Cc2nc(Cl)c3nc(Cl)cc(Cl)n23)cc1 [compound 18] | 1.56 µg/mL (≈ 4.5 µM) | 0.2 µg/mL (≈ 0.576 µM) | 3.13 µg/mL (≈ 9.02 µM) | 25 µg/mL (≈ 72 µM) | 6.25 µg/mL (≈ 18 µM) | 0.78 µg/mL (≈ 2.25 µM) | 3.13 µg/mL (≈ 9.02 µM) | 1.56 µg/mL (≈ 4.5 µM) |  | 
8 | Clc1cc(Cl)n2c(-c3cccs3)ncc2n1 [Exp. 1, 2,4-dichloro-6-(2-thienyl)imidazo[1,5-a]pyrimidine] | 3.13 µg/mL (≈ 11.6 µM) | 1.56 µg/mL (≈ 5.77 µM) | 1.56 µg/mL (≈ 5.77 µM) | 6.25 µg/mL (≈ 23.1 µM) | 6.25 µg/mL (≈ 23.1 µM) | 1.56 µg/mL (≈ 5.77 µM) | 1.56 µg/mL (≈ 5.77 µM) | 1.56 µg/mL (≈ 5.77 µM) | 6.25 µg/mL (≈ 23.1 µM) | 1.56 µg/mL (≈ 5.77 µM)

Stronger by MIC (Candida albicans 3147), values ahead:

Row | MIC (Candida albicans 3147) | MIC [1] | MIC [2] | MIC (Candida albicans KYF-602) | MIC [3] | MIC [4] | MIC [5] | MIC [6] | MIC [7] | MIC (Microsporum canis 200100) | SMILES
9 | 0.2 µg/mL (≈ 0.657 µM) | 0.78 µg/mL (≈ 2.56 µM) | 0.2 µg/mL (≈ 0.657 µM) | 0.39 µg/mL (≈ 1.28 µM) | 1.56 µg/mL (≈ 5.12 µM) | 0.78 µg/mL (≈ 2.56 µM) | 0.78 µg/mL (≈ 2.56 µM) | 0.78 µg/mL (≈ 2.56 µM) |  |  | Clc1cc(Cl)n2c(-c3ccc(Cl)s3)ncc2n1 [Exp. 7]
10 | 0.78 µg/mL (≈ 2.23 µM) | 0.78 µg/mL (≈ 2.23 µM) | 3.13 µg/mL (≈ 8.97 µM) | 3.13 µg/mL (≈ 8.97 µM) | 0.78 µg/mL (≈ 2.23 µM) | 0.78 µg/mL (≈ 2.23 µM) | 1.56 µg/mL (≈ 4.47 µM) | 0.78 µg/mL (≈ 2.23 µM) | 3.13 µg/mL (≈ 8.97 µM) | 0.78 µg/mL (≈ 2.23 µM) | Clc1cc(Cl)n2c(-c3ccc(Br)s3)ncc2n1 [Exp. 6]
11 | 0.78 µg/mL (≈ 2.56 µM) | 0.2 µg/mL (≈ 0.657 µM) | 1.56 µg/mL (≈ 5.12 µM) | 1.56 µg/mL (≈ 5.12 µM) | 1.56 µg/mL (≈ 5.12 µM) | 1.56 µg/mL (≈ 5.12 µM) | 3.13 µg/mL (≈ 10.3 µM) | 1.56 µg/mL (≈ 5.12 µM) |  |  | Clc1cc(Cl)n2c(C3CCCCC3)nc(Cl)c2n1 [compound 19]
